# Source: PubChem BioAssay (NCI)
#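 All cell lines were grown in 96-well plates and treated with compound for 48 hours. TGI is the concentration that stops growth completely.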
# Columns and labels:
# Experiment in all cases: NCI tumour cell line growth inhibition, 48 h
# DMS 273 small cell lung = test system: DMS 273 small cell lung
# UO-31 renal = test system: UO-31 renal
# K-562 leukemia = test system: K-562 leukemia
# OVCAR-3 ovarian = test system: OVCAR-3 ovarian
# LOX IMVI melanoma = test system: LOX IMVI melanoma
# IGROV1 ovarian = test system: IGROV1 ovarian
# OVCAR-8 ovarian = test system: OVCAR-8 ovarian
# A549 NSCLC = test system: A549 NSCLC
# TK-10 renal = test system: TK-10 renal
# OVCAR-4 ovarian = test system: OVCAR-4 ovarian
# NCI-H226 lung = test system: NCI-H226 lung
# HCT-116 colon = test system: HCT-116 colon
# HOP-92 NSCLC = test system: HOP-92 NSCLC
# ACHN renal = test system: ACHN renal
# SK-OV-3 ovarian = test system: SK-OV-3 ovarian
# LXFL 529 NSCLC = test system: LXFL 529 NSCLC
# SW-620 colon = test system: SW-620 colon
# M19-MEL melanoma = test system: M19-MEL melanoma
# RXF-631 renal = test system: RXF-631 renal
# MOLT-4 leukemia = test system: MOLT-4 leukemia
# CAKI-1 renal = test system: CAKI-1 renal
# SF-295 CNS = test system: SF-295 CNS
# RPMI-8226 leukemia = test system: RPMI-8226 leukemia
# SNB-19 CNS = test system: SNB-19 CNS
# 786-0 renal = test system: 786-0 renal
# UACC-257 melanoma = test system: UACC-257 melanoma
# CCRF-CEM leukemia = test system: CCRF-CEM leukemia
# HOP-62 NSCLC = test system: HOP-62 NSCLC
# COLO 205 colon = test system: COLO 205 colon
# RXF 393 renal = test system: RXF 393 renal
# SK-MEL-5 melanoma = test system: SK-MEL-5 melanoma
# SF-539 CNS = test system: SF-539 CNS
# SK-MEL-2 melanoma = test system: SK-MEL-2 melanoma
# DLD-1 colon = test system: DLD-1 colon
# NCI-H460 lung = test system: NCI-H460 lung
# A498 renal = test system: A498 renal
# SNB-75 CNS = test system: SNB-75 CNS
# SN12C renal = test system: SN12C renal
# EKVX NSCLC = test system: EKVX NSCLC
# SNB-78 CNS = test system: SNB-78 CNS
# UACC-62 melanoma = test system: UACC-62 melanoma
# NCI-H23 lung = test system: NCI-H23 lung
# NCI-H522 lung = test system: NCI-H522 lung
# OVCAR-5 ovarian = test system: OVCAR-5 ovarian
# XF 498 CNS = test system: XF 498 CNS
# SK-MEL-28 melanoma = test system: SK-MEL-28 melanoma
# M14 melanoma = test system: M14 melanoma
# MALME-3M melanoma = test system: MALME-3M melanoma
# SF-268 CNS = test system: SF-268 CNS
# HT29 colon = test system: HT29 colon
# HL-60(TB) leukemia = test system: HL-60(TB) leukemia
# KM20L2 colon = test system: KM20L2 colon
# DMS 114 small cell lung = test system: DMS 114 small cell lung
# HCC-2998 colon = test system: HCC-2998 colon
# HOP-18 NSCLC = test system: HOP-18 NSCLC
# KM12 colon = test system: KM12 colon
# U251 CNS = test system: U251 CNS
compound,measurement,setting,value
O=C(c1ccccc1)C1OC12C(=O)Nc1ccccc12 (configuration not stated),TGI,DMS 273 small cell lung,> 100 µM
same,TGI,UO-31 renal,> 100 µM
same,TGI,K-562 leukemia,24.3 µM
same,TGI,OVCAR-3 ovarian,97 µM
same,TGI,LOX IMVI melanoma,> 100 µM
same,TGI,IGROV1 ovarian,> 100 µM
same,TGI,OVCAR-8 ovarian,> 100 µM
same,TGI,A549 NSCLC,> 100 µM
same,TGI,TK-10 renal,> 100 µM
same,TGI,OVCAR-4 ovarian,> 100 µM
same,TGI,NCI-H226 lung,> 100 µM
same,TGI,HCT-116 colon,> 100 µM
same,TGI,HOP-92 NSCLC,55.2 µM
same,TGI,ACHN renal,> 100 µM
same,TGI,SK-OV-3 ovarian,> 100 µM
same,TGI,LXFL 529 NSCLC,30.3 µM
same,TGI,SW-620 colon,62.6 µM
same,TGI,M19-MEL melanoma,> 100 µM
same,TGI,RXF-631 renal,> 100 µM
same,TGI,MOLT-4 leukemia,34.1 µM
same,TGI,CAKI-1 renal,46 µM
same,TGI,SF-295 CNS,81.8 µM
same,TGI,RPMI-8226 leukemia,84.9 µM
same,TGI,SNB-19 CNS,> 100 µM
same,TGI,786-0 renal,> 100 µM
same,TGI,UACC-257 melanoma,> 100 µM
same,TGI,CCRF-CEM leukemia,25.2 µM
same,TGI,HOP-62 NSCLC,> 100 µM
same,TGI,COLO 205 colon,34.5 µM
same,TGI,RXF 393 renal,54.7 µM
same,TGI,SK-MEL-5 melanoma,47.3 µM
same,TGI,SF-539 CNS,57.4 µM
same,TGI,SK-MEL-2 melanoma,> 100 µM
same,TGI,DLD-1 colon,> 100 µM
same,TGI,NCI-H460 lung,> 100 µM
same,TGI,A498 renal,> 100 µM
same,TGI,SNB-75 CNS,42.2 µM
same,TGI,SN12C renal,> 100 µM
same,TGI,EKVX NSCLC,> 100 µM
same,TGI,SNB-78 CNS,> 100 µM
same,TGI,UACC-62 melanoma,> 100 µM
same,TGI,NCI-H23 lung,89.4 µM
same,TGI,NCI-H522 lung,28.2 µM
same,TGI,OVCAR-5 ovarian,> 100 µM
same,TGI,XF 498 CNS,> 100 µM
same,TGI,SK-MEL-28 melanoma,> 100 µM
same,TGI,M14 melanoma,63 µM
same,TGI,MALME-3M melanoma,> 100 µM
same,TGI,SF-268 CNS,> 100 µM
same,TGI,HT29 colon,37.9 µM
same,TGI,HL-60(TB) leukemia,9.73 µM
same,TGI,KM20L2 colon,66.8 µM
same,TGI,DMS 114 small cell lung,88.8 µM
O=C1/C(=C/c2cccc([N+](=O)[O-])c2)COc2ccc(Br)cc21,TGI,DMS 273 small cell lung,> 100 µM
same,TGI,HCC-2998 colon,> 100 µM
same,TGI,UO-31 renal,> 100 µM
same,TGI,K-562 leukemia,> 100 µM
same,TGI,OVCAR-3 ovarian,> 100 µM
same,TGI,LOX IMVI melanoma,> 100 µM
same,TGI,IGROV1 ovarian,> 100 µM
same,TGI,OVCAR-8 ovarian,> 100 µM
same,TGI,A549 NSCLC,> 100 µM
same,TGI,TK-10 renal,> 100 µM
same,TGI,HCT-116 colon,> 100 µM
same,TGI,HOP-92 NSCLC,> 100 µM
same,TGI,ACHN renal,> 100 µM
same,TGI,SK-OV-3 ovarian,> 100 µM
same,TGI,LXFL 529 NSCLC,> 100 µM
same,TGI,SW-620 colon,> 100 µM
same,TGI,M19-MEL melanoma,> 100 µM
same,TGI,MOLT-4 leukemia,96 µM
same,TGI,HOP-18 NSCLC,> 100 µM
same,TGI,SF-295 CNS,> 100 µM
same,TGI,RPMI-8226 leukemia,6.57 µM
same,TGI,786-0 renal,> 100 µM
same,TGI,UACC-257 melanoma,> 100 µM
same,TGI,CCRF-CEM leukemia,> 100 µM
same,TGI,HOP-62 NSCLC,> 100 µM
same,TGI,COLO 205 colon,> 100 µM
same,TGI,RXF 393 renal,> 100 µM
same,TGI,SK-MEL-5 melanoma,> 100 µM
same,TGI,SF-539 CNS,> 100 µM
same,TGI,SK-MEL-2 melanoma,> 100 µM
same,TGI,DLD-1 colon,> 100 µM
same,TGI,NCI-H460 lung,> 100 µM
same,TGI,A498 renal,> 100 µM
same,TGI,SNB-75 CNS,> 100 µM
same,TGI,EKVX NSCLC,> 100 µM
same,TGI,SNB-78 CNS,> 100 µM
same,TGI,NCI-H23 lung,> 100 µM
same,TGI,NCI-H522 lung,> 100 µM
same,TGI,OVCAR-5 ovarian,> 100 µM
same,TGI,XF 498 CNS,> 100 µM
same,TGI,SK-MEL-28 melanoma,> 100 µM
same,TGI,KM12 colon,> 100 µM
same,TGI,MALME-3M melanoma,> 100 µM
same,TGI,SF-268 CNS,> 100 µM
same,TGI,U251 CNS,> 100 µM
same,TGI,HT29 colon,> 100 µM
same,TGI,HL-60(TB) leukemia,58 µM
same,TGI,KM20L2 colon,> 100 µM
same,TGI,DMS 114 small cell lung,> 100 µM
